Data set [1] can be described thus: Primary thermal decomposition measurement (thermogravimetric analyzer). To be noted: N2 atmospheric environment, extrapolated onset of first mass reduction section. In kind it is physicochemical. From the text:
The primary thermal decomposition temperature may be defined as an extrapolated intersection point between a starting mass reference line and the tangent line of the maximum slope point in the first mass reduction section of a mass loss curve measured by a thermogravimetric analyzer in an N2 atmospheric environment.
A thermogravimetric analyzer (TGA2 manufactured by Mettler Toledo) was used in order to perform an experiment on the primary thermal decomposition temperature of the antibacterial compositions of Examples 1 to 13 and Comparative Example 1.
In the present experiment, the primary thermal decomposition temperature may be defined as an extrapolated intersection point between a starting mass reference line and the tangent line of the maximum slope point in the first mass reduction section of a mass loss curve measured by a thermogravimetric analyzer in an N2 atmospheric environment. In the present disclosure, it was determined that when the primary thermal decomposition temperature of the antibacterial composition has a value higher than the primary thermal decomposition temperature of the material before anion substitution, the heat resistance has increased.

For a further data set, the system named is E. coli bacteria. As to the kind of experiment: Bacterial proliferation inhibition rate measurement (Method 1). The conditions noted are these: 0.04 g in 20 mL nutrient broth inoculated with 3,000±300 CFU/mL, 37° C., 24 hours, absorbance at 600 nm. The class given is cell-based. On the procedure: After 0.04 g of the antibacterial composition is added to 20 mL of a nutrient broth culture solution inoculated with 3,000±300CFU/mL of bacterial strain, from the culture solution of an experimental group in which the resulting mixture is incubated at 37° C. in a shaking incubator for 24 hours, the absorbance at a wavelength of 600 nm is measured using a UV/Vis spectrophotometer, • the antibacterial composition is not added to 20 mL of a nutrient broth culture solution inoculated with 3,000±300CFU/mL of bacterial strain, from the culture solution of a control in which the nutrient broth culture solution is incubated at 37° C. for 24 hours, the absorbance at a wavelength of 600 nm is measured using a UV/Vis spectrophotometer, and • from the absorbance of the experimental group and the absorbance of the control group, the bacterial proliferation inhibition rate (%) of the test bacteria is calculated using the following Equation 1.
In the present experiment, the bacterial proliferation inhibition rate was measured according to the following Method 1. In this case, E. coli bacteria were used.

`C=Cc1ccc(C[N+](C)(C)CCCCCCCCCCCC)cc1.O=S(=O)([O-])C(F)(F)F` [Example 1]: the “Primary thermal decomposition temperature” value in data set [1] is 369 °C.

Turning to `C=Cc1ccc(C[N+](C)(C)CCCCCCCCCCCC)cc1.[Cl-]` [Comparative Example 1], the “Bacterial proliferation inhibition rate” value with E. coli bacteria worked out at 96.3%.
